Source: ChEMBL document CHEMBL5046316, “Structure-Based Optimization of a Fragment-like TLR8 Binding Screening Hit to an In Vivo Efficacious TLR7/8 Antagonist” (ACS Med Chem Lett, 2022)

Target: T1, Toll-like receptor 7 (Homo sapiens, UniProt Q9NYK1)
T1 sequence (Q9NYK1 whole entry): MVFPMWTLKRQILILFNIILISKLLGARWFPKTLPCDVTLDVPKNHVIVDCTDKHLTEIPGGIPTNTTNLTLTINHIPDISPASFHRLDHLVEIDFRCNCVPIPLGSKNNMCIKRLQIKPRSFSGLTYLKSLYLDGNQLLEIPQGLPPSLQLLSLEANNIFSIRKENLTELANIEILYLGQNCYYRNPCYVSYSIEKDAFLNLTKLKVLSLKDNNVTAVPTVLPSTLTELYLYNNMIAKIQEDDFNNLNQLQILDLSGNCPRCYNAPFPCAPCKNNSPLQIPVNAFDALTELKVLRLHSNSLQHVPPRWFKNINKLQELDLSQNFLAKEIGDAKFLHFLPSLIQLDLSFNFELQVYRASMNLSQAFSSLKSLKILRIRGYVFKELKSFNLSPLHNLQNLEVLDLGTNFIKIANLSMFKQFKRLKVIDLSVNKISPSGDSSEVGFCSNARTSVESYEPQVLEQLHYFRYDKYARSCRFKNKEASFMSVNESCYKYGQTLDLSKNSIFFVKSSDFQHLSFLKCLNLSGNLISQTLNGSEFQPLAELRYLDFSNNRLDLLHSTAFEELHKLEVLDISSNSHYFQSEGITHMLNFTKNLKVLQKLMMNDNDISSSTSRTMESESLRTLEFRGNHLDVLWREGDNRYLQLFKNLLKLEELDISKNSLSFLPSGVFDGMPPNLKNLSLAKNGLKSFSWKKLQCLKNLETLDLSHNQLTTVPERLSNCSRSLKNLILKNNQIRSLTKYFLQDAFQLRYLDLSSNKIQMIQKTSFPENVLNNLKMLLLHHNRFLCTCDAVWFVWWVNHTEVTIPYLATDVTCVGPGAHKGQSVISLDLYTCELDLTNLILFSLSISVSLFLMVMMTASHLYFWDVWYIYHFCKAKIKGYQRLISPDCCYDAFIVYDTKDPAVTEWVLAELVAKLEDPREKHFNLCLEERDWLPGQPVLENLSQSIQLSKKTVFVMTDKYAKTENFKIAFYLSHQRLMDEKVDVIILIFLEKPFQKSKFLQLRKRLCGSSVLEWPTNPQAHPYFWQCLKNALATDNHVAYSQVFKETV
Experiment: Antagonist activity at human TLR7 expressed in human PBMC cells assessed as inhibition of ssRNA stimulated IFNalpha level preincubated for 30 mins followed by stimulation and measured after 20 hrs by AlphaLISA method
Type: cell-based

Row | IC50 | Structure (SMILES)
1 | 3 nM | COc1cc2c(NC3CCN(C)CC3)n[nH]c2cc1-c1ccncc1
2 | 220 nM | COc1cc2c(C(=O)N3CCN(C)CC3)n[nH]c2cc1-c1ccncc1
3 | 9 nM | Cc1cc(-c2cc3[nH]nc(N[C@H]4CCNC[C@@H]4F)c3cc2C2CC2)cc(C)n1
4 | > 980 nM | COc1cc2c(C(=O)N3CCN(C)CC3)n[nH]c2cc1-c1ccnc(C)c1F

Target: T2, Toll-like receptor 8 (Homo sapiens, UniProt Q9NR97)
T2 sequence (Q9NR97 whole entry): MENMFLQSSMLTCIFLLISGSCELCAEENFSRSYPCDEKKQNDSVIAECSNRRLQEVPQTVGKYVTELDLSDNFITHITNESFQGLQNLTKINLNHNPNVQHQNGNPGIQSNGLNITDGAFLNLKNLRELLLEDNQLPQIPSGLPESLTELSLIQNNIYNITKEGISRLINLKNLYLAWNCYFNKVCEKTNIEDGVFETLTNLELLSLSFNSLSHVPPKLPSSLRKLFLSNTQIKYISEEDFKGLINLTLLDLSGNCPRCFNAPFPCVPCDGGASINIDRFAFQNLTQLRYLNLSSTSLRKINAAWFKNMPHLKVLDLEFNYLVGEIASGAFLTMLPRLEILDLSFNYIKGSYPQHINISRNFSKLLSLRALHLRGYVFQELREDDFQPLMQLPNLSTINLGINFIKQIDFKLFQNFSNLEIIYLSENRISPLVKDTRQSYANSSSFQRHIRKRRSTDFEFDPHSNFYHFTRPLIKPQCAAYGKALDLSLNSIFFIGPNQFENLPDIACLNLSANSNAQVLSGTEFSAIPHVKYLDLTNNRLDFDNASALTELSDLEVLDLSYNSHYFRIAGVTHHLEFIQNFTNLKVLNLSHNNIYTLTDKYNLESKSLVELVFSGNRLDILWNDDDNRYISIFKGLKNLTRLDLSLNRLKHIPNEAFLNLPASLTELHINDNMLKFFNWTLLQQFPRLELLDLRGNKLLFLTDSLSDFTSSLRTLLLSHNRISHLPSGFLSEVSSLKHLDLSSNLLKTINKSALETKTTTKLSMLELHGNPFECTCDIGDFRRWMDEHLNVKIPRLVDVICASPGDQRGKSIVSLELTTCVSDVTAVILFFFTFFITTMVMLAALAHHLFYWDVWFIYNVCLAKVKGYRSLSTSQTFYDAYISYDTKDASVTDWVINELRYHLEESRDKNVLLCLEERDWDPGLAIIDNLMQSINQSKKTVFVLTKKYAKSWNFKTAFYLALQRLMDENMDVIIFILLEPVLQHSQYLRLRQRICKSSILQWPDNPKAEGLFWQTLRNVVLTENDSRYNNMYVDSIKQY
Experiment: Antagonist activity at human TLR8 expressed in human PBMC cells assessed as inhibition of ssRNA stimulated TNF level preincubated for 30 mins followed by stimulation and measured after 20 hrs by multiplate reader assay
Type: cell-based

Row | IC50 | Structure (SMILES)
5 | 2.5 nM | COc1cc2c(C(=O)N3CCN(C)CC3)n[nH]c2cc1-c1cc(C)nc(C)c1
6 | 1.2 nM | COc1cc2c(C(=O)N3CCN(C)CC3)n[nH]c2cc1-c1ccnc(C)c1F

Target: T2, Toll-like receptor 8
Experiment: Antagonist activity at human TLR8 expressed in Drosophila S2 by TR-FRET assay

Row | IC50 | Structure (SMILES)
7 | 23 nM | COc1cc2c(C(=O)N3CCN(C)CC3)n[nH]c2cc1-c1cc(C)nc(C)c1
8 | 14 nM | COc1cc2c(C(=O)N3CCN(C)CC3)n[nH]c2cc1-c1ccnc(C)c1F

Test system: not listed separately
Experiment: Dissociation constant, pKa of the compound by UV spectrometric titration method
Type: physicochemical

Row | Structure (SMILES) | pKa
9 | COc1cc2c(NC3CCN(C)CC3)n[nH]c2cc1-c1cc(C)nc(C)c1 | 6.7
10 | COc1cc2c(NC3CCN(C)CC3)n[nH]c2cc1-c1ccnc(C)c1F | 4
11 | Cc1cc(-c2cc3[nH]nc(N[C@H]4CCNC[C@@H]4F)c3cc2C2CC2)cc(C)n1 | 6.7

The next lines start with the values.

Row | pKa | Structure (SMILES)
12 | 6.7 | COc1cc2c(C(=O)N3CCN(C)CC3)n[nH]c2cc1-c1cc(C)nc(C)c1
13 | 5.2 | COc1cc2c(NC3CCN(C)CC3)n[nH]c2cc1-c1ccncc1
14 | 5.3 | COc1cc2c(C(=O)N3CCN(C)CC3)n[nH]c2cc1-c1ccncc1
15 | 3.7 | COc1cc2c(C(=O)N3CCN(C)CC3)n[nH]c2cc1-c1ccnc(C)c1F
